Reference: paper PMC11995211, “Design, Synthesis, and Evaluation of a New Fluorescent Ligand for the M2 Muscarinic Acetylcholine Receptor” (ACS Medicinal Chemistry Letters, 2025)

Biological target: T1, hM5R (Homo sapiens, UniProt P08912)
T1 construct: expressed in transfected cells; host or cells: CHO cell membranes
T1 sequence (P08912 1-532): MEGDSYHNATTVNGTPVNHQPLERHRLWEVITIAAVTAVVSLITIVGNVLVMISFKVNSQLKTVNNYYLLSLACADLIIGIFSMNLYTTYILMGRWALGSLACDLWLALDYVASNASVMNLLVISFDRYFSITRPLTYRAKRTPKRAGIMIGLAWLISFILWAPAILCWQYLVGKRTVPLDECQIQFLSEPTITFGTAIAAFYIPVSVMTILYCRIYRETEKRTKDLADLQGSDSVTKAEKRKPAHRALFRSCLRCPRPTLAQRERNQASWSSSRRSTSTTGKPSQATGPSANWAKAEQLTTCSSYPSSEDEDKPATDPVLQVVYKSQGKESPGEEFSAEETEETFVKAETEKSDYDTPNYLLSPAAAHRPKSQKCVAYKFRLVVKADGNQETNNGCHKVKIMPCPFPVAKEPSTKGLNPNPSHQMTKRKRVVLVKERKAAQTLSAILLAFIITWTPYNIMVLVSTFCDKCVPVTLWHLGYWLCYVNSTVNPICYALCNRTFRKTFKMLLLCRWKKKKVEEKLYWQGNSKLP
Test: Radioligand competition binding, [3H]-scopolamine (N-methyl), CHO cell membranes, hM5R
Conditions: mean ± SD, n = 3; membranes from CHO cells transfected with hM5R; read-out: Receptor Ki M5

Ki: 182 ± 23 nM
SMILES: O=C(CCOCCOCCNC(=O)c1ccc(-c2c3cc(F)c(=O)cc-3oc3cc(O)c(F)cc23)c(C(=O)O)c1)NCCOCCOCCNc1ccccc1C(=O)N1CCC(N2CCC(Cc3ccc(S(=O)(=O)c4cccc(Cl)c4)cc3)CC2)CC1 [Compound 33]
